Laboratory results from ChEMBL document CHEMBL1201862, “PubChem BioAssay data set” (2004).
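Following 48 hours of exposure in 96-well plates, responses at five concentrations were used to interpolate endpoints linearly. At the GI50, growth is halved.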 Active and inactive are the calls of the source. No stated cut-off is given here; in the data, active = GI50 up to about 1.1 µM and inactive = higher.

Tests used:
Test in all cases: DTP human tumour cell line panel, 48 h
HCT-15 = tested on: HCT-15
HT-29 = tested on: HT-29
HOP-92 = tested on: HOP-92
SR = tested on: SR
MOLT-4 = tested on: MOLT-4
HOP-62 = tested on: HOP-62
SF-295 = tested on: SF-295
UACC-62 = tested on: UACC-62
SK-MEL-5 = tested on: SK-MEL-5
SNB-19 = tested on: SNB-19
SN12C = tested on: SN12C
SK-OV-3 = tested on: SK-OV-3
A498 = tested on: A498
SK-MEL-28 = tested on: SK-MEL-28
A549 = tested on: A549
NCI-H460 = tested on: NCI-H460
TK-10 = tested on: TK-10
MDA-N = tested on: MDA-N
DU-145 = tested on: DU-145
OVCAR-4 = tested on: OVCAR-4

Row | SMILES | GI50 (HCT-15) [µM] | GI50 (HT-29) | GI50 (HOP-92) | GI50 (SR) | GI50 (MOLT-4) | GI50 (HOP-62) | GI50 (SF-295) | GI50 (UACC-62) | GI50 (SK-MEL-5) | GI50 (SNB-19) | GI50 (SN12C) | GI50 (SK-OV-3) | GI50 (A498) | GI50 (SK-MEL-28) | GI50 (A549) | GI50 (NCI-H460) | GI50 (TK-10) | GI50 (MDA-N) | GI50 (DU-145) | GI50 (OVCAR-4)
1 | O=C(CCc1ccc(O)c(O)c1)NCCc1cc(O)cc(O)c1 | > 100 | > 100 µM (inactive) | > 100 µM (inactive) | > 100 µM (inactive) | > 100 µM (inactive) | > 100 µM (inactive) | > 100 µM (inactive) | > 100 µM (inactive) | > 100 µM (inactive) | > 100 µM (inactive) | > 100 µM (inactive) | > 100 µM (inactive) | > 100 µM (inactive) | > 100 µM (inactive) | > 100 µM (inactive) | > 100 µM (inactive) | > 100 µM (inactive) | 23.8 µM (inactive) | > 100 µM (inactive) | –
2 | Cc1cc(C)c2c(c1)CC1(Cc3c(C)cc(C)cc3C1=O)C2=O (centres undefined) | > 100 | – | > 100 µM (inactive) | > 100 µM (inactive) | > 100 µM (inactive) | – | > 100 µM (inactive) | > 100 µM (inactive) | > 100 µM (inactive) | > 100 µM (inactive) | > 100 µM (inactive) | – | > 100 µM (inactive) | > 100 µM (inactive) | 98.6 µM (inactive) | > 100 µM (inactive) | > 100 µM (inactive) | > 100 µM (inactive) | > 100 µM (inactive) | 46.3 µM (inactive)
3 | COC(=O)CNC(=O)CNC(=O)CSc1nnc(COc2ccc(Cl)cc2)n1-c1ccccc1 | > 100 | > 100 µM (inactive) | 19.2 µM (inactive) | 29 µM (inactive) | 36.6 µM (inactive) | > 100 µM (inactive) | > 100 µM (inactive) | 17.5 µM (inactive) | 22.4 µM (inactive) | 86.3 µM (inactive) | > 100 µM (inactive) | – | > 100 µM (inactive) | 25.1 µM (inactive) | > 100 µM (inactive) | 62.8 µM (inactive) | 44.5 µM (inactive) | 23.7 µM (inactive) | > 100 µM (inactive) | > 100 µM (inactive)
4 | COc1cc2c(cc1OC)C(=O)/C(=C/c1cc(OC)c(OC)c(OC)c1)C2 | > 100 | > 100 µM (inactive) | > 100 µM (inactive) | > 100 µM (inactive) | > 100 µM (inactive) | 43.6 µM (inactive) | > 100 µM (inactive) | > 100 µM (inactive) | > 100 µM (inactive) | > 100 µM (inactive) | > 100 µM (inactive) | > 100 µM (inactive) | > 100 µM (inactive) | > 100 µM (inactive) | – | > 100 µM (inactive) | – | > 100 µM (inactive) | > 100 µM (inactive) | > 100 µM (inactive)
5 | COC(=O)/C=C/c1ccc2nncnc2c1.COC(=O)/C=C\c1ccc2nncnc2c1 | 29 | 20 µM (inactive) | – | 56.9 µM (inactive) | 55.6 µM (inactive) | 70.5 µM (inactive) | 23.4 µM (inactive) | 15.7 µM (inactive) | 8.17 µM (inactive) | 57.4 µM (inactive) | > 100 µM (inactive) | > 100 µM (inactive) | 71.8 µM (inactive) | 43.8 µM (inactive) | 21.2 µM (inactive) | 10 µM (inactive) | > 100 µM (inactive) | 20.9 µM (inactive) | 28.7 µM (inactive) | > 100 µM (inactive)
6 | COc1c(CC=C(C)C)c(O)c(C(CC(C)C)c2c(O)c3c(c(C(C)=O)c2O)OC(C(C)(C)O)C3)c(O)c1C(C)=O (centres undefined) | 3.64 | 4.86 µM (inactive) | 2.71 µM (inactive) | 2.17 µM (inactive) | 1.74 µM (inactive) | 5.2 µM (inactive) | 4.55 µM (inactive) | 4.94 µM (inactive) | 2.22 µM (inactive) | 5.09 µM (inactive) | 3.93 µM (inactive) | 5.46 µM (inactive) | 3.84 µM (inactive) | 6.12 µM (inactive) | 4.21 µM (inactive) | – | – | 4.05 µM (inactive) | 4.54 µM (inactive) | 4.57 µM (inactive)
7 | CCOP(=O)(Cc1nc(C#N)c(N)o1)OCC | > 100 | > 100 µM (inactive) | > 100 µM (inactive) | > 100 µM (inactive) | > 100 µM (inactive) | > 100 µM (inactive) | > 100 µM (inactive) | > 100 µM (inactive) | > 100 µM (inactive) | > 100 µM (inactive) | > 100 µM (inactive) | > 100 µM (inactive) | > 100 µM (inactive) | > 100 µM (inactive) | – | > 100 µM (inactive) | > 100 µM (inactive) | > 100 µM (inactive) | > 100 µM (inactive) | > 100 µM (inactive)
